This is an account of results in ChEMBL document CHEMBL1131864, “Effects of sesquiterpenes and triterpenes from the rhizome of Alisma orientale on nitric oxide production in lipopolysaccharide-activated macrophages: absolute stereostructures of alismaketones-B 23-acetate and -C 23-acetate” (Bioorg Med Chem Lett, 1999).

Common to all, as to format: functional
For assay [1], the species on record is Mus musculus. Briefly: Concentration required for inhibition of nitric oxide production in LPS-activated mouse macrophages.
The species entered for assay [2] is Mus musculus. As to the kind of experiment: Inhibition of nitric oxide production in LPS-activated mouse macrophages at a concentration of 1 uM.
The species entered for assay [3] is Mus musculus. As to the kind of experiment: Inhibition of nitric oxide production in LPS-activated mouse macrophages at a concentration of 10 uM.
Assay [4] is filed under the species Mus musculus. As to the kind of experiment: Inhibition of nitric oxide production in LPS-activated mouse macrophages at a concentration of 100 uM.
The species named for assay [5] is Mus musculus. Briefly: Inhibition of nitric oxide production in LPS-activated mouse macrophages at a concentration of 3 uM.
The species named for assay [6] is Mus musculus. As to the kind of experiment: Inhibition of nitric oxide production in LPS-activated mouse macrophages at a concentration of 30 uM.

A value given as a limit tells only on which side of the number the result lay.

As to `C[C@H](C[C@H](O)[C@@H](O)C(C)(C)O)C1=C2C[C@H](O)C3[C@@]4(C)CCC(=O)C(C)(C)C4CC[C@]3(C)[C@@]2(C)CC1` (stereo not given in full), the 50% inhibitory concentration (IC50) (usually the midpoint of a concentration-inhibition curve) in the assay filed under Mus musculus [1] was > 10 µM. Also, the inhibition (usually the drop in the measured response relative to a control, in per cent) at 1 µM in the assay listed under Mus musculus [2] was 0.2%. Further, the inhibition at 10 µM in the assay filed under Mus musculus [3] worked out at 26.2%. Also, the inhibition at 100 µM in the assay listed under Mus musculus [4] worked out at 114%. Also, the inhibition at 3 µM in the assay listed under Mus musculus [5] is 21.4%. Also, in the assay filed under Mus musculus [6], the inhibition at 30 µM was found to be 84.2%.
Compound `C[C@@H]1CC([C@H]2OC2(C)C)OC2C[C@@]3(C)C(=C21)CCC1[C@@]2(C)CCC(=O)C(C)(C)C2CC[C@@]13C` (stereo not given in full) yielded a half-maximal inhibitory concentration (IC50) in the assay listed under Mus musculus [1] of 12 µM. Moreover, the inhibition at 1 µM in the assay filed under Mus musculus [2] is -5.1%. Moreover, the inhibition at 10 µM in the assay filed under Mus musculus [3] was 31.2%. In the assay listed under Mus musculus [4], the inhibition at 100 µM came out at 100%. Further, the inhibition at 3 µM in the assay listed under Mus musculus [5] amounted to 21.7%. Also, in the assay listed under Mus musculus [6], the inhibition at 30 µM is 84.2%.
As to `CC(C)C1=CC2C(CC[C@]2(C)O)[C@@](O)(CS(=O)(=O)O)CC1` (stereo not given in full), the concentration for half-maximal inhibition (IC50) in the assay listed under Mus musculus [1] was > 100 µM. Moreover, the inhibition at 1 µM in the assay filed under Mus musculus [2] is 2.8%. Besides, the inhibition at 10 µM in the assay filed under Mus musculus [3] was 4.9%. The inhibition at 100 µM in the assay filed under Mus musculus [4] was determined as 21.3%. In the assay listed under Mus musculus [5], the inhibition at 3 µM is -2.2%. Also, the inhibition at 30 µM in the assay listed under Mus musculus [6] worked out at 16.3%.
With `CC(C)C1=CC2C(CC[C@]2(C)O)[C@](C)(O)CC1` (stereo not given in full), the IC50 in the assay listed under Mus musculus [1] is > 100 µM. Besides, the inhibition at 1 µM in the assay filed under Mus musculus [2] is -2.5%. Moreover, the inhibition at 10 µM in the assay filed under Mus musculus [3] came to 0.4%. Further, the inhibition at 100 µM in the assay listed under Mus musculus [4] is 33.1%. Also, in the assay filed under Mus musculus [5], the inhibition at 3 µM is -1.8%. For the same compound, in the assay filed under Mus musculus [6], the inhibition at 30 µM amounted to 12%.
`CC(=O)O[C@@H](C[C@@H](C)C1=C2C[C@H](O)C3[C@@]4(C)CCC(=O)C(C)(C)C4CC[C@]3(C)[C@@]2(C)CC1=O)[C@H]1OC1(C)C` (stereo not given in full) showed a half-maximal inhibitory concentration (IC50) in the assay filed under Mus musculus [1] of 42 µM. In the assay filed under Mus musculus [2], the inhibition at 1 µM turned out to be 2.9%. For the same compound, the inhibition at 10 µM in the assay filed under Mus musculus [3] is 21.1%. In the assay listed under Mus musculus [4], the inhibition at 100 µM worked out at 67.3%. The inhibition at 3 µM in the assay listed under Mus musculus [5] turned out to be 13.3%. For the same compound, the inhibition at 30 µM in the assay filed under Mus musculus [6] amounted to 43.8%.
Take `CC(C)[C@]12CC[C@](C)(O1)C1CC[C@](C)(S(=O)(=O)O)C1[C@@H]2O` (stereo not given in full): the IC50 in the assay listed under Mus musculus [1] was > 100 µM. Besides, the inhibition at 1 µM in the assay listed under Mus musculus [2] was 3.3%. In addition, the inhibition at 10 µM in the assay filed under Mus musculus [3] amounted to 4.3%. In addition, in the assay listed under Mus musculus [4], the inhibition at 100 µM stood at 24.7%. In the assay listed under Mus musculus [5], the inhibition at 3 µM is -2.1%. In addition, the inhibition at 30 µM in the assay filed under Mus musculus [6] was determined as 12.6%.
With `CC(=O)O[C@@H](C[C@@H](C)[C@]12O[C@H]1C[C@@]1(C)C2=CC(=O)C2[C@@]3(C)CCC(=O)C(C)(C)C3CC[C@@]21C)[C@H]1OC1(C)C` (stereo not given in full), in the assay listed under Mus musculus [1], the IC50 is > 10 µM. Besides, the inhibition at 1 µM in the assay filed under Mus musculus [2] turned out to be 9.9%. For the same compound, the inhibition at 10 µM in the assay listed under Mus musculus [3] is 31.1%. Further, in the assay filed under Mus musculus [4], the inhibition at 100 µM is 114%. In addition, in the assay filed under Mus musculus [5], the inhibition at 3 µM is 11.9%. Moreover, the inhibition at 30 µM in the assay listed under Mus musculus [6] came out at 83.6%.
As for `CC(=O)O[C@@H](C[C@@H](C)C1=C2[C@H](O)[C@H](O)C3[C@@]4(C)CCC(=O)C(C)(C)C4CC[C@]3(C)[C@@]2(C)CC1=O)[C@H]1OC1(C)C` (stereo not given in full), inhibition in the assay listed under Mus musculus [1] was half-maximal at 9.3 µM (IC50). For the same compound, the inhibition at 1 µM in the assay filed under Mus musculus [2] was 19%. For the same compound, the inhibition at 10 µM in the assay listed under Mus musculus [3] is 50.8%. In addition, the inhibition at 100 µM in the assay filed under Mus musculus [4] came to 104%. The inhibition at 3 µM in the assay filed under Mus musculus [5] was 29.7%. Besides, the inhibition at 30 µM in the assay listed under Mus musculus [6] stood at 86.3%.
Take `C[C@@H]1CC([C@@H](O)C(C)(C)O)OC2C[C@@]3(C)C(=C21)C[C@H](O)C1[C@@]2(C)CCC(=O)C(C)(C)C2CC[C@@]13C` (stereo not given in full): in the assay filed under Mus musculus [1], the IC50 came to 15 µM. The inhibition at 1 µM in the assay listed under Mus musculus [2] was determined as 7.5%. Further, the inhibition at 10 µM in the assay listed under Mus musculus [3] was 40.3%. Besides, the inhibition at 100 µM in the assay filed under Mus musculus [4] worked out at 99.5%. Besides, the inhibition at 3 µM in the assay filed under Mus musculus [5] is 14.8%. The inhibition at 30 µM in the assay listed under Mus musculus [6] was determined as 69.6%.
For `CC(=O)O[C@@H](C[C@@H](C)C1=C2C[C@@H]3OC(=O)C[C@@]4(C)C(C(C)(C)C(=O)O)CC[C@@](C)(C34)[C@@]2(C)CC1)[C@H]1OC1(C)C` (stereo not given in full), the IC50 in the assay filed under Mus musculus [1] was found to be 16 µM. Also, in the assay filed under Mus musculus [2], the inhibition at 1 µM was found to be 10.3%. Also, the inhibition at 10 µM in the assay listed under Mus musculus [3] amounted to 38.2%. In addition, the inhibition at 100 µM in the assay filed under Mus musculus [4] was determined as 90.7%. Further, the inhibition at 3 µM in the assay listed under Mus musculus [5] is 23.2%. The inhibition at 30 µM in the assay filed under Mus musculus [6] was 65.6%.
